In the supplement of paper PMC13380429:

Assays:
Conditions in all cases: 72 h
U2OS [1] = assay: drug sensitivity score (DSS) for viability; higher = more toxic; extreme values may be limits of the assay
Caco-2 [2] = assay: as above
HepG2 [3] = assay: as above
Calu-3 [4] = assay: as above
Vero E6 [5] = assay: as above
U2OS [6] = assay: cell viability relative to DMSO; higher = less toxic
Caco-2 [7] = assay: as above
HepG2 [8] = assay: as above
Calu-3 [9] = assay: as above
Vero E6 [10] = assay: as above
U2OS [11] = assay: relative viability EC50 (midpoint between 100% and the lowest measured viability); higher = less toxic
Caco-2 [12] = assay: as above
HepG2 [13] = assay: as above
Vero E6 [14] = assay: as above
Calu-3 [15] = assay: as above

Structure (SMILES) | drug sensitivity score (U2OS [1]) | drug sensitivity score (Caco-2 [2]) | drug sensitivity score (HepG2 [3]) | drug sensitivity score (Calu-3 [4]) | drug sensitivity score (Vero E6 [5]) | cell viability (U2OS [6]; 1 nM) [%] | cell viability (U2OS [6]; 10 nM) [%] | cell viability (U2OS [6]; 100 nM) [%] | cell viability (U2OS [6]; 1000 nM) [%] | cell viability (U2OS [6]; 10000 nM) [%] | cell viability (Caco-2 [7]; 1 nM) [%] | cell viability (Caco-2 [7]; 10 nM) [%] | cell viability (Caco-2 [7]; 100 nM) [%] | cell viability (Caco-2 [7]; 1000 nM) [%] | cell viability (Caco-2 [7]; 10000 nM) [%] | cell viability (HepG2 [8]; 1 nM) [%] | cell viability (HepG2 [8]; 10 nM) [%] | cell viability (HepG2 [8]; 100 nM) [%] | cell viability (HepG2 [8]; 1000 nM) [%] | cell viability (HepG2 [8]; 10000 nM) [%] | cell viability (Calu-3 [9]; 1 nM) [%] | cell viability (Calu-3 [9]; 10 nM) [%] | cell viability (Calu-3 [9]; 100 nM) [%] | cell viability (Calu-3 [9]; 1000 nM) [%] | cell viability (Calu-3 [9]; 10000 nM) [%] | cell viability (Vero E6 [10]; 1 nM) [%] | cell viability (Vero E6 [10]; 10 nM) [%] | cell viability (Vero E6 [10]; 100 nM) [%] | cell viability (Vero E6 [10]; 1000 nM) [%] | cell viability (Vero E6 [10]; 10000 nM) [%] | relative viability EC50 (U2OS [11]) [µM] | relative viability EC50 (Caco-2 [12]) [µM] | relative viability EC50 (HepG2 [13]) [µM] | relative viability EC50 (Vero E6 [14]) [µM] | relative viability EC50 (Calu-3 [15]) [µM]
C/C(=C\c1csc(C)n1)[C@@H]1C[C@@H]2O[C@]2(C)CCC[C@H](C)[C@H](O)[C@@H](C)C(=O)C(C)(C)[C@@H](O)CC(=O)O1 [epothilone-B] | 33.1 | 24 | 37.2 | 19 | 29.5 | 50.3 | 39.9 | 23.9 | 30.7 | 44.3 | 79.8 | 54.2 | 47.6 | 52.8 | 50.6 | 52.3 | 29.7 | 18.4 | 19.8 | 32 | 91.8 | 66 | 53.8 | 54.7 | 59.3 | 77.6 | 48.9 | 29.9 | 35.7 | 45.4 | < 0.001 | 0.0016 | < 0.001 | 0.0026 | –
Nc1cccc(CNC(=O)c2ccc(Oc3ccc(OCc4cccc(F)c4)cc3)nc2)c1 | 0 | 0.9 | 1.7 | 0.7 | 0 | 99 | 106 | 94.8 | 101 | 92.1 | 100 | 102 | 91.5 | 107 | 71.2 | 92.9 | 102 | 103 | 91.8 | 77.9 | 104 | 101 | 96.1 | 97.7 | 81.9 | 93.4 | 99.9 | 98.8 | 102 | 99.3 | > 10 | – | > 10 | > 10 | > 10
CCCCCOc1ccc(-c2cc(-c3ccc(C(=O)N[C@H]4C[C@@H](O)[C@@H](O)NC(=O)[C@@H]5[C@@H](O)[C@@H](C)CN5C(=O)[C@H]([C@H](O)CC(N)=O)NC(=O)[C@H]([C@H](O)[C@@H](O)c5ccc(O)c(OS(=O)(=O)O)c5)NC(=O)[C@@H]5C[C@@H](O)CN5C(=O)[C@H]([C@@H](C)O)NC4=O)cc3)no2)cc1 [micafungin] | 0 | – | 0 | 0 | 0 | 104 | 102 | 103 | 101 | 99.4 | – | – | – | – | – | 98.4 | 117 | 106 | 81.8 | 109 | 106 | 108 | 98.3 | 99.4 | 115 | 99.2 | 101 | 106 | 97.2 | 92.9 | > 10 | – | > 10 | > 10 | > 10
Fc1ccc(CNc2ncnc3ccc(F)cc23)cc1 [spautin-1] | 0 | 2.4 | 5.9 | 2.8 | 0.1 | 92.2 | 97.4 | 101 | 95.5 | 96.7 | 99.7 | 98.9 | 96 | 91 | 69.3 | 99.2 | 102 | 104 | 88.8 | 26.3 | 97.3 | 90.2 | 100 | 88.6 | 70.1 | 102 | 96 | 96.6 | 89.5 | 89.1 | > 10 | – | 1.98 | > 10 | –
COCCCOc1cc(C[C@@H](C[C@H](N)[C@@H](O)C[C@H](C(=O)NCC(C)(C)C(N)=O)C(C)C)C(C)C)ccc1OC [aliskiren-hemifumarate] | 0 | 3.7 | 0 | 0 | 0 | 97.2 | 102 | 101 | 103 | 93.7 | 84.8 | 81.9 | 70.4 | 89.1 | 100 | 111 | 103 | 103 | 87.5 | 100 | 88.8 | 101 | 96.5 | 96 | 88 | 93.8 | 95.3 | 91.8 | 93.9 | 93.2 | > 10 | – | > 10 | > 10 | > 10
CC(C)(C)CC(=O)Nc1c(F)cc(C(=O)/N=c2\sccn2COP(=O)(O)O)cc1F | 0 | 0 | 0 | – | 0 | 95.8 | 101 | 97 | 98.2 | 95.5 | 97.9 | 109 | 99.4 | 104 | 92.3 | 101 | 114 | 94.8 | 98.9 | 96.9 | – | – | – | – | – | 107 | 104 | 102 | 96.5 | 94.3 | > 10 | > 10 | > 10 | > 10 | –
O=C1[C@H]2CCCC[C@H]2C(=O)N1CCCCN1CCN(c2nsc3ccccc23)CC1 [perospirone] | 0 | 3.4 | 2 | 0 | 0 | 96.2 | 99.7 | 104 | 92.9 | 92.8 | 86.7 | 87 | 91.8 | 92.9 | 65.9 | 97.4 | 88.9 | 89.1 | 89.1 | 86.1 | 94.1 | 101 | 99.3 | 98.7 | 89 | 104 | 98.7 | 102 | 101 | 107 | > 10 | – | > 10 | > 10 | > 10
